From patent US10660898B2, “Benzimidazole derivatives as PI3 kinase inhibitors” (GLAXOSMITHKLINE LLC, priority 2010, dated 2020)

Assays:
Assay in all cases: Anchorage independent soft agar tumor growth assay
Format in all cases: cell-based
[1] = tested on: Colo205; settings: Colo205 colon carcinoma, PTEN Wild-type
Protocol: (§1) Cellular Assays—Cell Growth Inhibition Assay in PTEN Wild-Type or PTEN Deficient Tumor Cell Lines Twenty-two Phosphatase and Tensin Homolog (PTEN) wild-type or PTEN deficient tumor cell lines were cultured generally according to instructions supplied by cell culture supplier American Type Culture Collection, Manassas, Va., with 10% fetal bovine serum at 5% CO2 and 37° C. Cells were seeded into either a T-75 or a T-175 flask 3-4 days prior to 96-well assay plating such that the flasks were approximately 70-80% confluent of the time of harvest. Cells were harvested using 0.25% trypsin-EDTA (Invitrogen #25200056). Trypan Blue exclusion staining was used to determine cell number. Viable cells were plated in clear, flat bottom 96-well plates (BD #353075) under anchorage independent conditions at 2,000-10,000 cells per well depending on the cell line. To generate anchorage independent growth conditions, a 5% agar stock solution in water was made and autoclaved to melt and sterilize. From the 5% agar solution, a 0.6% agar/media+10% fetal bovine serum (FBS) solution was made to generate a bottom agar layer in the plates to prevent cell attachment. Seventy five microliters per well of the 0.6% agar-media solution was added to the plates. After solidification, a cell solution of 266,870 to 1, 334,022 cells (depending on the cell line) in 10 ml of 0.3% agar/media+10% FBS was made and 75 μl of the cell/media/agar suspension was added to the plates. After the cell layer solidified, 50 μl of media+10% FBS was added to the top of the cells. A 0.3% Brij 35 (Sigma B4184) solution in media+10% FBS was added to column 12 as a background subtraction control. The cells were incubated overnight at 5% CO2 and 37° C. The next day one plate of cells was processed at the time of compound addition to quantify the starting number of cells (T=0 or T0). […] Three hundred microliters of media was added to the compound dilutions. Ten microliters per well of the serial dilutions was added to the cells and the plates incubated for 6 days at 5% CO2 and 37° C. […] Following the 6-day incubation, 20 μl of Alamar Blue (Invitrogen # DAL1100) was added to the cells, incubated at 5% CO2 and 37° C. for 6 hours and the plates read on a Spectramax (Gemini EM) at 530 nm (excitation) and 590 nm (emission) with the auto cut-off disabled. For analysis of cell growth inhibition dose response curves, the data was plotted as the percent of the DMSO-treated control samples (DMSO samples set to 100%). […] Values from wells containing 0.3% Brij 35 (under anchorage independent conditions) were subtracted from all samples for background correction.

[2] = tested on: UM-UC-3; settings: UM-UC-3 bladder transitional, PTEN Loss, No protein
Protocol: as §1

[3] = tested on: U251; settings: U251 CNS glioblastoma, PTEN p.E242fs*15, No protein
Protocol: as §1

[4] = tested on: HCC70; settings: HCC70 breast carcinoma, PTEN p.F90fs*9, No protein
Protocol: as §1

[5] = tested on: LOXIMVI; settings: LOXIMVI skin melanoma, PTEN Wild-type, Protein
Protocol: as §1

[6] = tested on: WM-115; settings: WM-115 skin melanoma, PTEN p.165fs*, No protein
Protocol: as §1

[7] = tested on: MDA-MB-468; settings: MDA-MB-468 breast carcinoma, PTEN p.?, L70Fs*7, No protein
Protocol: as §1

[8] = tested on: SW1783; settings: SW1783 CNS glioblastoma, PTEN p.R233*, No protein
Protocol: as §1

[9] = tested on: BT474; settings: BT474 breast carcinoma, PTEN Wild-type, Protein
Protocol: as §1

[10] = tested on: C32; settings: C32 skin melanoma, PTEN p.55fs*, No protein
Protocol: as §1

[11] = tested on: HCT-116; settings: HCT-116 colon carcinoma, PTEN Wild-type
Protocol: as §1

[12] = tested on: CHL-1; settings: CHL-1 skin melanoma, PTEN Wild-type, Protein
Protocol: as §1

[13] = tested on: U-87MG; settings: U-87MG CNS glioblastoma, PTEN p.? (splice site mutation), No protein
Protocol: as §1

[14] = tested on: HCC19377; settings: HCC19377 breast carcinoma, PTEN Loss, No protein
Protocol: as §1

[15] = tested on: SKOV-3; settings: SKOV-3 ovary adenocarcinoma, PTEN Wild-type
Protocol: as §1

[16] = percent of DMSO-treated control
[17] = Homo sapiens, 144 h, 6-day incubation, Alamar Blue, read-out: Compound EC50 (nM) ± StDev

- EC50 ([1]; Homo sapiens, COLO 205, 144 h, 6-day incubation, Alamar Blue, read-out: Compound EC50 (nM) ± StDev): > 30700 nM
- EC50 ([2]; Homo sapiens, UMUC3, 144 h, 6-day incubation, Alamar Blue, read-out: Compound EC50 (nM) ± StDev): 10 ± 8 nM
- EC50 ([3]; Homo sapiens, U-251, 144 h, 6-day incubation, Alamar Blue, read-out: Compound EC50 (nM) ± StDev): 19000 ± 8620 nM
- EC50 ([5]; Homo sapiens, LOX IMVI, 144 h, 6-day incubation, Alamar Blue, read-out: Compound EC50 (nM) ± StDev): > 30700 nM
- EC50 [6, 17]: 8 ± 3 nM
- EC50 [7, 17]: 89 ± 55 nM
- EC50 [8, 17]: 10 ± 3 nM
- EC50 ([9]; Homo sapiens, BT-474, 144 h, 6-day incubation, Alamar Blue, read-out: Compound EC50 (nM) ± StDev): 3360 ± 868 nM
- EC50 [10, 17]: 8 ± 2 nM
- EC50 [11, 17]: > 30700 nM
- EC50 [12, 17]: 14 ± 6 nM
- EC50 [13, 17]: 2980 ± 2770 nM
- EC50 ([14]; 144 h, 6-day incubation, Alamar Blue, read-out: Compound EC50 (nM) ± StDev): 24 ± 8 nM
- EC50 ([15]; Homo sapiens, SK-OV-3, 144 h, 6-day incubation, Alamar Blue, read-out: Compound EC50 (nM) ± StDev): > 30700 nM
SMILES: Cc1c(Cn2c(C)nc3c(C(=O)O)cc(N4CCOCC4)cc32)cccc1C(F)(F)F [Example 31, 2-methyl-1-{[2-methyl-3-(trifluoromethyl)phenol]methyl}-6-(4-morpholinyl)-1H-benzimidazole-4-carboxylic acid]
- Compound Ymin ± StDev [1, 16]: >80
- Compound Ymin ± StDev [2, 16]: 83 ± 29
- Compound Ymin ± StDev [3, 16]: 80 ± 17
- Compound Ymin ± StDev [4, 16]: 27 ± 8
- EC50 [4, 17]: 53 ± 21 nM
- Compound Ymin ± StDev [5, 16]: >90
- Compound Ymin ± StDev [6, 16]: 54 ± 14
- Compound Ymin ± StDev [7, 16]: 44 ± 6
- Compound Ymin ± StDev [8, 16]: 69 ± 4
- Compound Ymin ± StDev [9, 16]: 75 ± 3
- Compound Ymin ± StDev [10, 16]: 20 ± 14
- Compound Ymin ± StDev [11, 16]: >80
- Compound Ymin ± StDev [12, 16]: 82 ± 2
- Compound Ymin ± StDev [13, 16]: 34 ± 18
- Compound Ymin ± StDev [14, 16]: 67 ± 8
- Compound Ymin ± StDev [15, 16]: >80
